Source: US20180016244A1, “DEUTERIUM-SUBSTITUTED OXADIAZOLES” (Auspex Pharmaceuticals, Inc., priority 2015, published 2018)

Assay: In vitro human liver microsomal stability assay
Type: in vitro ADME
Conditions: human liver microsomes 2 mg per mL protein, NADPH-generating system, 1 μM test compound, 37±1° C., 0-240 min, change relative to non-deuterated d0 (Example 1); for Half-Life % change over d0: degradation half-life
Method: In Vitro Liver Microsomal Stability Assay
Human liver microsomal stability assays were conducted at 2 mg per mL liver microsome protein with an NADPH-generating system consisting of NADP (1 mM, pH 7.4), […] (5 mM, pH 7.4), and glucose-6-phosphate dehydrogenase (I unit/mL).
Test compounds were prepared as solutions in DMSO and added to the assay mixture (1 μM, final concentration in incubation) to be incubated at 37±1° C. Reactions were initiated with the addition of cofactor and were stopped at 0, 60, 120, or 240 min after cofactor addition with stop reagent (0.2 mL acetonitrile). Samples were centrifuged (920×g for 10 min at 10° C.) in 96-well plates. Supernatant fractions were analyzed by LC-MS/MS to determine the percent remaining and estimate the degradation half-life of the test compounds.

Structure (SMILES) | Clearance % change over d0 [%] | Half-Life % change over d0 [%]
[2H]C(C)(C)Oc1ccc(-c2nc(-c3cccc4c3CC[C@@H]4NCCO)no2)cc1C#N [Example 2, 5-[3-[(1S)-1-[(2-hydroxyethyl)amino]-2,3-dihydro-1H-inden-4-yl]-1,2,4-oxadiazol-5-yl]-2-[(2-^2H)propan-2-yloxy]benzonitrile] | 1 | −9.0
CC(C)Oc1ccc(-c2nc(-c3cccc4c3CC[C@@H]4NCCO)no2)cc1C#N [Example 1, 5-[3-[(1S)-1-[(2-hydroxyethyl)amino]-2,3-dihydro-1H-inden-4-yl]-1,2,4-oxadiazol-5-yl]-2-(propan-2-yloxy)benzonitrile, reference compound] | 0.00 | 0.0
[2H]C([2H])([2H])C([2H])(Oc1ccc(-c2nc(-c3cccc4c3CC[C@@H]4NCCO)no2)cc1C#N)C([2H])([2H])[2H] [Example 3, 5-[3-[(1S)-1-[(2-hydroxyethyl)amino]-2,3-dihydro-1H-inden-4-yl]-1,2,4-oxadiazol-5-yl]-2-[(^2H7)propan-2-yloxy]benzonitrile] | 7 | 0.0

The next lines start with the values.

Clearance % change over d0 [%] | Half-Life % change over d0 [%] | Structure (SMILES)
5 | −4.6 | [2H]C(C)(C)Oc1ccc(-c2nc(-c3cccc4c3CC[C@@H]4NC([2H])([2H])C([2H])([2H])O)no2)cc1C#N [Example 4, 5-[3-[(1S)-1-[[2-hydroxy(^2H4)ethyl]amino]-2,3-dihydro-1H-inden-4-yl]-1,2,4-oxadiazol-5-yl]-2-[(2-^2H)propan-2-yloxy]benzonitrile]
11 | 0.0 | [2H]C([2H])([2H])C([2H])(Oc1ccc(-c2nc(-c3cccc4c3CC[C@@H]4NC([2H])([2H])C([2H])([2H])O)no2)cc1C#N)C([2H])([2H])[2H] [Example 5, 5-[3-[(1S)-1-[[2-hydroxy(^2H7)ethyl]amino]-2,3-dihydro-1H-inden-4-yl]-1,2,4-oxadiazol-5-yl]-2-[(^2H4)propan-2-yloxy]benzonitrile]
2 | 17.9 | [2H]C(C)(C)Oc1ccc(-c2nc(-c3cccc4c3CC[C@]4([2H])NCCO)no2)cc1C#N [Example 6, 5-[3-[(1S)-1-[(2-hydroxyethyl)amino]-2,3-dihydro(1-^2H)-1H-inden-4-yl]-1,2,4-oxadiazol-5-yl]-2-[(2-^2H)propan-2-yloxy]benzonitrile]
